Experimental data from patent US5288723A, “A composition and a method of using veratridine and epinephrine as a local anesthetic” (priority 1991, dated 1994).
Entries after “also recorded” stand apart in the source; their conditions may differ. Where two headings read alike, the source gives them in different places.

How the values were obtained:
rat sciatic nerve = assay: Motor block of rat sciatic nerve in vivo (toe curling and/or foot dragging); parameters: species or system Male Sprague-Dawley rats; conditions: for duration, MOTOR / onset, MOTOR: mean ± SEM
Procedure: Male Sprague-Dawley rats (200-250 g) were divided into 4 groups of 10 each. 0.1 ml of VTD alone at 0.2, 0.5 or 0.7 mM or vehicle (saline) was injected at the depression between the femoral head and the hip. The same animals were injected with VTD with epinephrine (EPI, 1:200,000) one week later, using the previously uninjected leg. Motor and sensory functions were rated by the respective monitoring of toe curling and/or foot dragging, and by testing the nocifensive withdrawal reflex to pinch of the foot pad of the injected hindlimb. Saline alone affected neither function.

[1] = aqueous slat solutions; limited to approximately; cited from earlier work
[2] = system: Na^+ channel of the mammalian brain; conditions: purified polypeptides in phospholipid vesicles; cited from earlier work
[3] = system: C-fibers of rabbit vagus nerve; assay: Extracellular recording of compound action potentials (APc), desheathed vagus nerve, C-fibers; parameters: species or system New Zealand white rabbit; conditions: for inhibition at 0.5 µM: 1 h, mean ± SEM; for inhibition at 0.5 µM / activity at 0.5 µM: 0.5 μM VTD; for activity at 0.5 µM: read-out: Amplitude of single APc elevation relative to amplitude at beginning of VTD exposure
Procedure: (§1) Adult male New Zealand white rabbits (3±0.5 kg) were pretreated intramuscularly with a mixture of ketamine (200 mg), xylazine (20 mg) and atropine (0.4 mg) for sedation. Ten minutes after this treatment, the animals were anesthetized with diethyl ether. After cessation of respiration, a longitudinal skin incision was made, and the cervical portion of both vagus nerves was dissected. The vagus nerves were temporarily stored at room temperature (22° C.) in a beaker containing modified HEPES Liley (HL) solution stirred constantly by aeration with a mixture of 95% oxygen and 5% carbon dioxide.
(§2) The modified HL solution used for bathing the nerve and subsequent drug perfusion consisted of (in mM): NaCl, 118.0; KCl, 5.0; CaCl2 2H2 0, 2.0; MgCl2 6H2 0, 1.0; α-D(+)-glucose, 11.0; NaHC03, 25.0; and N-2-hydroxy-ethylpiperazine-N-2-ethanesulfonic acid (HEPES) buffer, 5.0 mM. The pH was adjusted to 7.4±0.05 by addition of 1 N NaOH. The perfusion solution was bubbled with a gas mixture of 95% oxygen and 5% carbon dioxide at a vigorous rate just before flowing onto the nerve. The pH was stabilized by the HEPES buffer and maintained at 7.4.
(§3) VTD free base (no. V-5754, lot 58F-7828, Sigma, St. Louis, Mo.) was stored in a desiccator below 0° C. and was used to prepare a 2 mM stock solution in dimethyl sulfoxide [DMSO], Fisher Scientific, lot 861316), which also was stored at below 0° C. VTD, a steroidal alkaloid (FIG. 2A) that is produced by certain lilies, has a solubility limited to approximately 10^-3 M in aqueous slat solutions [Kupchan and By, "The Veratrum Group," in Alkaloids, Vol. 10, Manske, R.H.F. (ed.), New York, Academic Press (1968), pp. 193-285]. The stock VTD solution was diluted to final concentrations of 0.2-10 μM by the addition of HL. The maximum equivalent content of DMSO is 0.5%, and in three control experiments we detected no change in electrophysiologic behavior with 1% DMSO.
(§4) The nerves were cleaned and desheathed by microdissection before mounting in an airtight chamber (FIG. 2B) [Gissen et al., Anesthesiology 53:467-474 (1980)]. Petroleum jelly (White Petrolatum, Denison Laboratories) seals separated a central, 11-mm length of the nerve from the lateral pools, used for stimulating and recording with electrodes made of platinum wire. The central section of the chamber (volume 0.25 ml) was perfused with HL solution at 0.5 ml.min.^-1. The lateral pools containing the moistened ends of the nerves adsorbed to the electrodes were filled with paraffin oil. The APc s were propagated over 21 mm, from the stimulating to the recording electrodes, with the proximal recording electrodc located 4.5 mm from the edge of the central, drug exposure chamber. Thus, measured APc s were conducted in nerve exposed to drug for half of the conduction pathway, and had been conducting through drug-free medium over a distance containing at least two or three nodes of Ranvier (in the fastest-conducting fibers), before reaching the recording electrodes.
(§5) The signal from the nerve was amplified 50 times (model AK 475 operational amplifier, Metametrics, Carlisle, Mass.) and passed to the oscilloscope preamplifiers (model 5A 22N, Tektronix). The preparation was not considered acceptable unless the APc signals from the nerve exceeded 1.5 mV for A-fibers, 0.5 mV for B-fibers, and 0.3 mV for C-fibers.
(§6) Each nerve was exposed to only one VTD concentration, and each concentration was tested in four or five separate nerves, except in tie sheathed nerves, for which only two nerves were used. The temperature was 20°-22° C.
(§7) The standard protocol used for testing the action of VTD was to record the APc elevations in control HL solution for 30-60 min. before adding VTD; for 60-75 min. during VTD application; and for 60-75 min. after replacement with VTD-free HL. […]

[4] = system: vagus nerve with intact sheath (C-fibers); assay: Extracellular recordings from sheathed nerves; parameters: species or system rabbit
Procedure: as §4, §5, §6
We tested the ability of VTD to penetrate the tissues ensheathing the vagus nerve. Nerves with intact sheaths were arranged in the same extracellular recording chamber as had been used for the desheathed nerve studies just described. Because of the electrical isolating qualities of the sheath, stimulus requirements are greater and the recorded APC s are smaller, but have the same latency from stimulation as in the desheathed nerves. […] However, the onset of the effect was much slower and the VTD dose requirement much higher: 2 μM VTD took approximately 30 min. to affect the C-fibers detectably, and 10 μM took approximately 15 min. This is expected in a lipophilic base for which more than 90%, on average, of the drug molecules are ionized [Kupchan and By, "The Veratrum Group," in Alkaloids, Vol. 10, Manske, R.H.F. (ed.), New York, Academic Press (1968), pp. 193-285].

[5] = system: B-fibers of rabbit vagus nerve; assay: Extracellular recording of compound action potentials (APc), desheathed vagus nerve, B-fibers; parameters: species or system New Zealand white rabbit; conditions: for inhibition at 0.5 µM / activity at 0.5 µM: Oryctolagus cuniculus, 0.5 μM VTD; for inhibition at 0.5 µM: 70 min, 50 Hz, mean ± SEM; for activity at 0.5 µM: read-out: Amplitude of single APc elevation relative to amplitude at beginning of VTD exposure
Procedure: as §1, §2, §3, §4, §5, §6, §7

Compound: COc1ccc(C(=O)OC2CCC3(C)C4CCC5C6(O)CC(O)C7(O)C(CN8CC(C)CCC8C7(C)O)C6(O)CC53OC24O)cc1OC (centres unmarked) [VTD, veratridine]
- Onset of motor block (summary) (rat sciatic nerve; VTD alone, 0.2-0.7 mM): 6 to 12 min
- duration, MOTOR (rat sciatic nerve; [VTD] 0.2 mM, 0.1 ml): 124 ± 19 min
- fraction block, MOTOR (rat sciatic nerve; [VTD] 0.5 mM, 0.1 ml): 10/10
- duration, MOTOR (rat sciatic nerve; [VTD] 0.5 mM, 0.1 ml): 211 ± 31 min
- onset, MOTOR (rat sciatic nerve; [VTD] 0.5 mM, 0.1 ml): 10 ± 3 min
- duration, MOTOR (rat sciatic nerve; [VTD] 0.7 mM, 0.1 ml): 285 ± 39 min
- onset, MOTOR (rat sciatic nerve; [VTD] 0.7 mM, 0.1 ml): 6 ± 2 min
- Motor function inhibition compared with bupivacaine and lidocaine (rat sciatic nerve; rat sciatic nerve): more potent and longer acting inhibitor of motor function than either bupivacaine or lidocaine; also recorded: more potent and longer-acting inhibitor of motor function than either bupivacaine or lidocaine
- Solubility [1]: approximately 10^-3 M
- Sodium flux into vesicles in response [2]: sodium flux into these vesicles occurs
- Use-dependent reduction of APc by VTD, C-fibers ([3]; 0-2.0 μM (FIG. 7C), at relatively low frequencies): diminished most; also recorded: greatest for the C-fiber component
- Use-dependent inhibition and slowing of C-fiber APc ([3]; 2 μM VTD, 5 Hz, second through tenth APc, 15-20 min. exposure): slowed conduction and reduced amplitude
- Single-stimulus APc after VTD compared with no-VTD controls ([3]; C-fibers, 0.5 μM, 60 min. in VTD, P<0.005): significant enhancement
- Longer latency of the second wave vs the first wave ([3]; C-fibers, 2 μM VTD, 5 Hz (FIG. 6B)): about 20%
- Reversal of use-dependent depression by washing ([3]; C-fibers, VTD-free HL wash): partial reversal
- Recovery time of APc after stimulation ceased ([3]; C-fibers, sometimes as long as, depending on VTD concentration): 1 to 2 min
- inhibition at 0.5 µM ([3]; Oryctolagus cuniculus, C-fibers, 10 Hz, after 60 min. in VTD, P < 0.001 vs control, read-out: Percent inhibition of the tenth APc in a train compared to the first, VTD): 54.6 ± 3.8%
- inhibition at 0.5 µM ([3]; Oryctolagus cuniculus, C-fibers, 10 Hz, after 60 min. wash, read-out: Percent inhibition of the tenth APc in a train compared to the first, HL (Wash)): 34.6 ± 3.8%
- activity at 0.5 µM ([3]; Oryctolagus cuniculus, C-fibers, during VTD exposure): 111 ± 5%
- activity at 0.5 µM ([3]; Oryctolagus cuniculus, C-fibers, wash period): 133 ± 15%
- inhibition at 0.2 µM ([3]; Oryctolagus cuniculus, 0.2 μM VTD, 10 Hz, after about 1 h of wash-out, read-out: C-fiber use-dependent inhibition after VTD wash-out): 22%
- Time to affect the C-fibers detectably, sheathed nerve ([4]; 2 μM VTD): approximately 30 min.
- Time to affect the C-fibers detectably, sheathed nerve ([4]; 10 μM VTD): approximately 15 min.
- Use-dependent reduction as % of that achieved at steady state on a desheathed nerve by 0.2 μm VTD ([4]; 10 Hz, 60-min. exposure to 10 μm VTD): approximately 30%
- C-fiber elevation / APc inhibition in sheathed nerves ([4]; intact sheath): inhibited selectively; also recorded: progressively inhibited in a use-dependent fashion
- Reduction of rate of penetration into the nerve by the sheath ([4]; sheathed vs desheathed nerve): at least 50 fold
- Rate of VTD action with intact nerve sheath ([4]; vs desheathed nerves): far less than in desheathed nerves
- Duration of steady-state effect in drug-free solution ([4]; wash-out period after 75 min. exposure, both nerves tested, up to): up to 3 h
- Reversal of use-dependent effects on B-fibers by washing ([5]; 75 min. of washing with drug-free HL): not abolished completely
- Single-stimulus APc after VTD compared with no-VTD controls ([5]; B-fibers, 0.5 μM, 60 min. in VTD, P>0.05): no significant difference
- Reversal of use-dependent depression by washing ([5]; B-fibers, VTD-free HL wash): did not reverse
- inhibition at 0.5 µM ([5]; B-fibers, after 70 min. in VTD, P < 0.001 vs control, read-out: Percent inhibition of the tenth APc in a train compared to the first, VTD): 55 ± 2.8%
- inhibition at 0.5 µM ([5]; B-fibers, after 70 min. wash, read-out: Percent inhibition of the tenth APc in a train compared to the first, HL (Wash)): 52.6 ± 3.7%
- activity at 0.5 µM ([5]; B-fibers, during VTD exposure): 105 ± 23%
- activity at 0.5 µM ([5]; B-fibers, wash period): 108 ± 31%
